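Five concentrations, 48 hours, 96-well plates. Here, GI50 denotes the concentration required for 50% inhibition of growth. The concentration for full growth arrest is given as TGI.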
Legend:
Experiment in all cases: DTP human tumour cell line panel, 48 h
HOP-62 NSCLC = system: HOP-62 NSCLC
MALME-3M melanoma = system: MALME-3M melanoma
UACC-257 melanoma = system: UACC-257 melanoma
KM12 colon = system: KM12 colon
SW-620 colon = system: SW-620 colon
SR leukemia = system: SR leukemia
HL-60(TB) leukemia = system: HL-60(TB) leukemia
SNB-19 CNS = system: SNB-19 CNS
EKVX NSCLC = system: EKVX NSCLC
786-0 renal = system: 786-0 renal

SMILES | TGI (HOP-62 NSCLC) | TGI (MALME-3M melanoma) | TGI (UACC-257 melanoma) | TGI (KM12 colon) | TGI (SW-620 colon) | TGI (SR leukemia) | TGI (HL-60(TB) leukemia) | TGI (SNB-19 CNS) | TGI (EKVX NSCLC) | TGI (786-0 renal) | GI50 (HOP-62 NSCLC) | GI50 (MALME-3M melanoma) | GI50 (UACC-257 melanoma) | GI50 (KM12 colon) | GI50 (SW-620 colon) | GI50 (SR leukemia) | GI50 (HL-60(TB) leukemia) | GI50 (SNB-19 CNS) | GI50 (EKVX NSCLC) | GI50 (786-0 renal)
O=[N+]([O-])c1ccc(-c2cn(-c3ccc(Cl)cc3)cn2)cc1 | 34.6 µM | > 100 µM | > 100 µM | > 100 µM | > 100 µM | > 100 µM | > 100 µM | > 100 µM | > 100 µM | 36.5 µM |  |  |  |  |  |  |  |  |  | 
CC(Oc1ccc2cc(C(=O)c3ccccc3)c(=O)oc2c1)C(=O)O (stereo not drawn) | > 100 µM | > 100 µM | > 100 µM | > 100 µM | > 100 µM | > 100 µM | > 100 µM | > 100 µM | > 100 µM | > 100 µM |  |  |  |  |  |  |  |  |  | 
O=C1c2cccnc2C(=O)c2c1c(C(=O)OCCN1CCOCC1)c1ccccn21 | < 0.0142 µM | 0.985 µM | 0.592 µM | 15.7 µM | 3.23 µM | 1.83 µM | 3.21 µM | 3.15 µM | 10.1 µM | 2.22 µM | < 0.01 µM | 0.0353 µM | 0.0354 µM | 0.0725 µM | < 0.01 µM | < 0.01 µM | 0.0789 µM | < 0.01 µM | 1.54 µM | 0.0108 µM
COc1ccc(/C=C/C(=O)c2ccc(Nc3ccnc4cc(Cl)ccc34)cc2)cc1 | > 100 µM | > 100 µM | > 100 µM | > 100 µM | > 100 µM | 10.1 µM | > 35 µM | > 100 µM | > 100 µM | > 100 µM | > 100 µM | > 100 µM | > 100 µM | > 79.4 µM | > 100 µM | 2.24 µM |  | > 100 µM | > 100 µM | > 100 µM
C[C@@]1(N2C(=O)OC[C@@H]2c2ccccc2)C(=O)N([C@H](CC(=O)N2CCC(N3CCCCC3)CC2)C(=O)NCc2cccc(C(F)(F)F)c2)[C@@H]1/C=C/c1ccccc1 | 5.76 µM | 3.54 µM | 3.97 µM | 6.21 µM | 4.09 µM | 4.7 µM | 4.65 µM | 6.56 µM | 3.69 µM | 3.41 µM | 2.03 µM | 1.83 µM | 2.09 µM | 2.42 µM | 1.98 µM | 1.94 µM | 2.13 µM | 2.55 µM | 1.56 µM | 1.81 µM
COc1cc(C2C(C#N)=C(N)Oc3cc(O)ccc32)cc(OC)c1OC (stereo not drawn) | > 100 µM | > 100 µM | > 100 µM | 63.3 µM | > 100 µM | > 100 µM | > 100 µM | > 100 µM | > 100 µM | > 100 µM | 0.746 µM | 0.644 µM | 0.401 µM | 0.454 µM | 0.361 µM | 0.335 µM | 0.311 µM |  | 6.49 µM | 0.668 µM
CC(=O)OCC1OC(Sc2ccccn2)C=CC1OC(C)=O (stereo not drawn) | > 100 µM | > 100 µM | > 100 µM | > 100 µM | > 100 µM | > 100 µM | > 100 µM | > 100 µM | > 100 µM | > 100 µM |  |  |  |  |  |  |  |  |  | 
CN(C)CCC1(C2=CCCC2)CC/C(=C\c2ccccc2)C1=O (stereo not drawn) | 30 µM | 31.7 µM | 28.5 µM | 28.8 µM | 32.2 µM | > 100 µM | 29.9 µM | 28.3 µM | 25.7 µM | 27.8 µM |  |  |  |  |  |  |  |  |  | 
Oc1cc2c(cc1O)-c1[nH]ncc1CC2 | > 100 µM | > 100 µM | > 100 µM | > 100 µM | > 100 µM | > 100 µM | 76.6 µM | > 100 µM | 61.1 µM | > 100 µM |  |  |  |  |  |  |  |  |  | 
C[C@]12CC[C@H]3[C@@H](C[C@@H]4N=C(c5ccc(O)cc5)S[C@@]45C[C@H](O)CC[C@]35C)[C@@H]1CC[C@@H]2O | 50.5 µM | > 100 µM | > 100 µM | > 100 µM | > 100 µM | 33.8 µM | > 100 µM | > 100 µM | > 100 µM | 2.39 µM | 5.26 µM | 3.76 µM | 19.1 µM | 7.24 µM | 8.4 µM | 1.37 µM | 4.09 µM | 7.95 µM | 7.29 µM | 0.423 µM
Nc1nc2c(c3cnccc13)C(c1cccc(Cl)c1)Cc1cnccc1-2 (stereo not drawn) | 16.3 µM | 17.8 µM | 22.5 µM | 12.2 µM | 17.6 µM | > 100 µM | 5.27 µM | 12.4 µM | 15.1 µM | 10.6 µM | 0.441 µM | 0.419 µM | 4.36 µM | 0.409 µM | 0.455 µM | 0.293 µM | 0.278 µM | 0.453 µM | 0.441 µM | 0.396 µM
Cc1nc2cc(N)c(Cl)cc2[nH]1 | > 100 µM | > 100 µM | > 100 µM | > 100 µM | > 100 µM | > 100 µM | > 100 µM | > 100 µM | > 100 µM | > 100 µM |  |  |  |  |  |  |  |  |  | 
COC(=O)C(Cc1nc2ccccc2[nH]c1=O)C(=O)C(=O)Nc1ccc(OC)cc1[N+](=O)[O-] (stereo not drawn) | > 100 µM | > 100 µM | > 100 µM | > 100 µM | > 100 µM | > 100 µM | > 100 µM | > 100 µM | > 100 µM | > 100 µM |  |  |  |  |  |  |  |  |  | 
O=C1C(N2C(=O)c3ccccc3C2=O)CN1C(COCc1ccccc1)c1ccc(OCc2ccccc2)cc1 (stereo not drawn) | > 100 µM | > 100 µM | > 100 µM | > 100 µM | > 100 µM | > 100 µM | > 100 µM | > 100 µM | > 100 µM | > 100 µM |  |  |  |  |  |  |  |  |  | 
COc1ccc(C(=O)O)c(Cc2ccc3ccccc3c2)c1 | > 100 µM | > 100 µM | > 100 µM | > 100 µM | > 100 µM | > 100 µM | > 100 µM | > 100 µM | > 100 µM | > 100 µM |  |  |  |  |  |  |  |  |  | 
CC[C@]12CCCN3CC[C@]4(C(=C(C(=O)OC)C1)Nc1ccccc14)[C@@H]32 | 32.7 µM | 29.7 µM | 42.2 µM | 39.1 µM | 33.3 µM | > 100 µM | 52 µM | 66.2 µM | 63.1 µM | 29.1 µM | 15.6 µM | 13 µM | 16.7 µM | 16.7 µM | 16.2 µM | 17.2 µM | 21.9 µM | 22.9 µM | 18.9 µM | 13.9 µM
O=C1OC2C(O)C(=O)OC2C1O (stereo not drawn) | > 100 µM | > 100 µM | > 100 µM | > 100 µM | > 100 µM | > 100 µM | > 100 µM | > 100 µM | > 100 µM | > 100 µM |  |  |  |  |  |  |  |  |  | 
CN1CCCCC1CCN1c2ccccc2Sc2ccc(S(C)=O)cc21 (stereo not drawn) | > 100 µM | > 100 µM | > 100 µM | > 100 µM | > 100 µM | > 100 µM | > 100 µM | > 100 µM | > 100 µM | > 100 µM |  |  |  |  |  |  |  |  |  | 
CCCCCCCCCC(CCCC(O)CC(=O)O)OC1OC(COC2OC(C)C(O)C(O)C2O)C(O)C(O)C1OC1OC(CO)C(O)C(O)C1OC1OC(C)C(O)C(O)C1O (stereo not drawn) | > 40 µM | > 40 µM | > 40 µM | > 40 µM | > 40 µM | > 40 µM | > 40 µM | > 40 µM | > 40 µM | > 40 µM | > 40 µM | > 40 µM | > 40 µM | > 40 µM | > 40 µM | > 40 µM | > 40 µM | > 40 µM | > 40 µM | > 40 µM
CCC/C(=N\NC(=O)c1cc2ccccc2cc1O)C(CC)C(=O)CCC(=O)N(Cc1ccccc1)Cc1ccccc1 (stereo not drawn) | > 100 µM | > 100 µM | > 100 µM | > 100 µM | > 100 µM | > 100 µM | 40.1 µM | > 100 µM | > 100 µM | > 100 µM |  |  |  |  |  |  |  |  |  | 
CCOC(=O)/C=C/c1ccccn1 | > 100 µM | > 100 µM | > 100 µM | > 100 µM | > 100 µM | > 100 µM | > 100 µM |  | > 100 µM | > 100 µM |  |  |  |  |  |  |  |  |  | 
COc1ccc(-c2nocc2-c2cc(OC)c(OC)c(OC)c2)cc1 | > 100 µM | 60.7 µM |  | 14.1 µM | > 100 µM | > 76.3 µM | 0.886 µM | > 100 µM | > 100 µM | 31.6 µM | 0.138 µM | 21.6 µM |  | 0.0386 µM | 0.0466 µM | 0.0497 µM | 0.0387 µM | 0.175 µM | 0.121 µM | 0.109 µM
N#CC1=C(c2ccccc2)C(O)(c2ccccc2)NC1=O (stereo not drawn) | > 100 µM | 74 µM | > 100 µM | > 100 µM | > 100 µM | > 100 µM | > 100 µM |  | > 100 µM | > 100 µM |  |  |  |  |  |  |  |  |  | 
CN(C)/C=N/c1nc2ncn(CCOC(=O)c3ccccc3)c2c(=O)[nH]1 | > 100 µM | > 100 µM | > 100 µM | > 100 µM | > 100 µM | > 100 µM | > 100 µM |  | > 100 µM | > 100 µM |  |  |  |  |  |  |  |  |  | 

From PubChem BioAssay (NCI)
